From ChEMBL document CHEMBL2074392, “Three-dimensional quantitative structure-activity relationships of inhibitors of P-glycoprotein” (Mol Pharmacol, 2002)

Experiments:
Format in all cases: functional, cell-based
[1] = molecular target: T1, ATP-dependent translocase ABCB1 (Homo sapiens, UniProt P08183); experiment: TP_TRANSPORTER: increase in Calcein-AM intracellular accumulation in MDR1-expressing LLC-PK1 cells
[2] = molecular target: T1, ATP-dependent translocase ABCB1; experiment: TP_TRANSPORTER: increase in Vinblastine intracellular accumulation in MDR1-expressing LLC-PK1 cells
[3] = molecular target: T1, ATP-dependent translocase ABCB1; experiment: TP_TRANSPORTER: inhibition of Digoxin transepithelial transport (basal to apical) (Digoxin: 5 uM) in Caco-2 cells

T1 sequence (P08183 whole entry): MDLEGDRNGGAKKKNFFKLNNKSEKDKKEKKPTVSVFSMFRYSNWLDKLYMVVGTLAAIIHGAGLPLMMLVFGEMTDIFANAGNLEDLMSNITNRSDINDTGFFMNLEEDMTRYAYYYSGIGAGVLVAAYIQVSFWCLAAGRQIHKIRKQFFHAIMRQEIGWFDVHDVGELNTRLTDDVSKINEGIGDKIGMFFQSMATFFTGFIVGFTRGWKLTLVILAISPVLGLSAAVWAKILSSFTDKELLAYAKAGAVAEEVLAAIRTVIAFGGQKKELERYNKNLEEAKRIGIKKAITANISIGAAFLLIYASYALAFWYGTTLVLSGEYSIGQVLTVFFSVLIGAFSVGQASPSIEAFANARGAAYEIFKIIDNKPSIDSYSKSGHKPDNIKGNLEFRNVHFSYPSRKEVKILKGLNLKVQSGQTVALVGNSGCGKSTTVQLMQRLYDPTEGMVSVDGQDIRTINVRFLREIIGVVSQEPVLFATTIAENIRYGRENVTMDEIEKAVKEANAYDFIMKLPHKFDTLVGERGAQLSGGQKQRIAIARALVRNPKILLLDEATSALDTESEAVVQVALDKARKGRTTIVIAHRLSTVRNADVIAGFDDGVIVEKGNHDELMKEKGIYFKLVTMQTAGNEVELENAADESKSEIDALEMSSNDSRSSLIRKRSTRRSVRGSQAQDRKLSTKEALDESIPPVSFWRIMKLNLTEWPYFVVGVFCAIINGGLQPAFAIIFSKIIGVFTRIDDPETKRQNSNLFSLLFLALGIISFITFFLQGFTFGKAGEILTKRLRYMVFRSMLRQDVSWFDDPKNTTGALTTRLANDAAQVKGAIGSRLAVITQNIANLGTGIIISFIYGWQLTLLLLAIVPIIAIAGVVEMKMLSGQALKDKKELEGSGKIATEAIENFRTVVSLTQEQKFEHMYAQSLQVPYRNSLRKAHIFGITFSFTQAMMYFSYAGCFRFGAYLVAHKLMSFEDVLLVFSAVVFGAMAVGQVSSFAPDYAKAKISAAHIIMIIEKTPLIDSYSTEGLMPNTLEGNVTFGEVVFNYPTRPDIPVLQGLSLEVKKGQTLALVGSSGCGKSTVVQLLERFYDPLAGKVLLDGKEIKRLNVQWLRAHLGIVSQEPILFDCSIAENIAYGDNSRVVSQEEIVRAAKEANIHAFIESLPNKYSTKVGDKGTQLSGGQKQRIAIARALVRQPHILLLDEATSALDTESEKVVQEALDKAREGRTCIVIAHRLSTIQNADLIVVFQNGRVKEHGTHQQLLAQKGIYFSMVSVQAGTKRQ

| Compound | Ki [1] | Ki [2] | IC50 [3] |
| --- | --- | --- | --- |
| CC(C)[C@H]1C(=O)N2CCC[C@H]2[C@]2(O)O[C@](NC(=O)[C@@H]3C=C4c5cccc6[nH]cc(c56)C[C@H]4N(C)C3)(C(C)C)C(=O)N12 [ERGOCORNINE] | 105 µM | 24.5 µM | – |
| CN1C[C@H](C(=O)N[C@]2(C)O[C@@]3(O)[C@@H]4CCCN4C(=O)[C@H](Cc4ccccc4)N3C2=O)C[C@@H]2c3cccc4[nH]cc(c34)C[C@H]21 [DIHYDROERGOTAMINE] | > 1000 µM | 120 µM | – |
| CC(C)C[C@H]1C(=O)N2CCC[C@H]2[C@]2(O)O[C@](NC(=O)[C@@H]3C=C4c5cccc6[nH]c(Br)c(c56)C[C@H]4N(C)C3)(C(C)C)C(=O)N12 [BROMOCRIPTINE] | 2.81 µM | 3.96 µM | – |
| COC(=O)[C@H]1[C@H]2C[C@@H]3c4[nH]c5cc(OC)ccc5c4CCN3C[C@H]2C[C@@H](OC(=O)c2cc(OC)c(OC)c(OC)c2)[C@@H]1OC [RESERPINE] | 12.2 µM | 0.97 µM | – |
| CC(C)[C@@]1(NC(=O)[C@@H]2C[C@@H]3c4cccc5[nH]cc(c45)C[C@H]3N(C)C2)O[C@@]2(O)[C@@H]3CCCN3C(=O)[C@H](Cc3ccccc3)N2C1=O [DIHYDROERGOCRISTINE] | 511 µM | 16 µM | – |
| CC(C)[C@@]1(NC(=O)[C@@H]2C=C3c4cccc5[nH]cc(c45)C[C@H]3N(C)C2)O[C@@]2(O)[C@@H]3CCCN3C(=O)[C@H](Cc3ccccc3)N2C1=O [ERGOCRISTINE] | 42.8 µM | 13.3 µM | – |
| CC(C)C[C@H]1C(=O)N2CCC[C@H]2[C@]2(O)O[C@](NC(=O)[C@@H]3C=C4c5cccc6[nH]cc(c56)C[C@H]4N(C)C3)(C(C)C)C(=O)N12 [ERGOCRYPTINE] | 12.2 µM | 6.43 µM | – |
| CN1C[C@H](C(=O)N[C@]2(C)O[C@@]3(O)[C@@H]4CCCN4C(=O)[C@H](Cc4ccccc4)N3C2=O)C=C2c3cccc4[nH]cc(c34)C[C@H]21 [ERGOTAMINE] | 98.9 µM | 14.2 µM | – |
| COc1ccc(CCCN2CCC(Cc3ccccc3)CC2)cc1OC | – | – | 2.3 µM |
| CC(C)C[C@H]1C(=O)N2CCC[C@H]2[C@]2(O)O[C@](NC(=O)[C@@H]3C[C@@H]4c5cccc6[nH]cc(c56)C[C@H]4N(C)C3)(C(C)C)C(=O)N12 [DIHYDROERGOCRYPTINE] | 360 µM | 19.8 µM | – |
| OC(Cn1cncn1)(Cn1cncn1)c1ccc(F)cc1F [FLUCONAZOLE] | > 1000 µM | > 400 µM | – |
| C[C@@H](CO)NC(=O)[C@@H]1C=C2c3cccc4[nH]cc(c34)C[C@H]2N(C)C1 [ERGONOVINE] | 115 µM | > 100 µM | – |
